For two compounds, EC50 results are on record in patent US20160046592A1, “PHARMACEUTICAL COMPOSITION FOR THE TREATMENT OF DIABETES” (Ajinomoto Co., Inc., priority 2013, published 2016).

The assay addresses T1, human GYS1 (glycogen synthase) (Homo sapiens, UniProt P13807).
T1 construct: made in house; host or cells: HEK293T
T1 sequence (P13807 1-737): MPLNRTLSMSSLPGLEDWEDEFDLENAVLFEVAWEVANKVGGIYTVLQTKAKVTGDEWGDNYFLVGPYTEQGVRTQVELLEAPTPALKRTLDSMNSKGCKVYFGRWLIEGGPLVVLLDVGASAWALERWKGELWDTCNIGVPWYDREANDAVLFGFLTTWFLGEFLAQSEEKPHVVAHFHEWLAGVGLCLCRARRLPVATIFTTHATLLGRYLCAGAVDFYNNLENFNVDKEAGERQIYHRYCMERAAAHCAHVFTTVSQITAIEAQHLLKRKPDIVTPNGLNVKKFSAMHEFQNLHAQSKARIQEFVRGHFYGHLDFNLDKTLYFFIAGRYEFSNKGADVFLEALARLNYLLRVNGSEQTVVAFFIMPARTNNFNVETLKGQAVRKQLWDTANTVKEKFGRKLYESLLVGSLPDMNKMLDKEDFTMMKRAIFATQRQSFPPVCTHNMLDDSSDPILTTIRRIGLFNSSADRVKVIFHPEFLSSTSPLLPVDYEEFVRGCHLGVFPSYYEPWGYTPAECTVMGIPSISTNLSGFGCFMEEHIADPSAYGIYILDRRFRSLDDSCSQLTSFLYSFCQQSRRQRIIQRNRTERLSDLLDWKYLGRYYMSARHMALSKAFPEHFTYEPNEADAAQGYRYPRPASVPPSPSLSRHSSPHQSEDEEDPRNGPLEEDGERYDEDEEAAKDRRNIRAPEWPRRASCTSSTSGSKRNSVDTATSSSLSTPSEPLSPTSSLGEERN
Put plainly: Measurement of glycogen synthase activity. Conditions: concentration causing 50% increase in relative activity; 100% = compound of Example 1 of WO/2011/058154 at 10 μM; 10 mM Glucose-6-phosphate; 37° C. for 25 minutes (Examples 1 to 61 and 67 to 82) or 20 minutes (Examples 62 to 66); absorbance at 340 nm. Format: biochemical. A digest of the protocol:
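Human GYS1 from transfected HEK293T cells (re-dissolved 16000×g pellet) was reacted at 37 °C for 25 or 20 min in glycylglycine pH 7.3 with glucose-6-phosphate, glycogen and UDP-glucose. PK/LDH-coupled NADH read-out at 340 nm; EC50 from activity relative to a reference activator at 10 μM final (100%).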

Molecules are shown by their SMILES. Structures can show the parent of a compound that is named as a salt.

`CSc1cc(F)c(F)cc1-c1ccc(OCc2cccc(C(=O)N3C[C@H](N(C)C)C[C@H]3C(=O)O)c2)cc1` [Example 63, (2S,4R)-1-[3-[[4-(4,5-Difluoro-2-methylsulfanyl-phenyl)phenoxy]methyl]benzoyl]-4-(dimethylamino)pyrrolidine-2-carboxylic Acid Trifluoroacetate] had an EC50 of 17 nM.
The figure for `COC[C@@H]1CC[C@@H](C(=O)O)N1C(=O)c1cccc(COc2ccc(-c3cc(F)c(F)cc3SC)cc2)c1` [Example 62, (2S,5S)-1-[3-[[4-(4,5-Difluoro-2-methylsulfanyl-phenyl)phenoxy]methyl]benzoyl]-5-(methoxymethyl)pyrrolidine-2-carboxylic Acid] is 17 nM.
